ChEMBL document CHEMBL1201862, “PubChem BioAssay data set” (2004)
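Tested at 5 concentrations; 48 h exposure; 96-well plates; endpoints linearly interpolated, else capped at highest concentration. GI50 is the concentration that inhibits growth by half.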 Calls of active or inactive are those of the source. Cut-off read from the data, not from the text of the source: active = GI50 up to about 1.1 µM and inactive = higher.

Assays:
Assay in all cases: NCI anticancer screen, dose series, 48 h
786-0 = test system: 786-0
A549 = test system: A549
ACHN = test system: ACHN
CAKI-1 = test system: CAKI-1
CCRF-CEM = test system: CCRF-CEM
COLO 205 = test system: COLO 205
DLD-1 = test system: DLD-1
DMS-114 = test system: DMS-114
DMS-273 = test system: DMS-273
EKVX = test system: EKVX
HCC 2998 = test system: HCC 2998
HCT-116 = test system: HCT-116
HCT-15 = test system: HCT-15
HL-60 = test system: HL-60
HOP-18 = test system: HOP-18
HOP-62 = test system: HOP-62
HT-29 = test system: HT-29
IGROV-1 = test system: IGROV-1
K562 = test system: K562
KM-20L2 = test system: KM-20L2
KM12 = test system: KM12
LOX IMVI = test system: LOX IMVI
LXFL 529 = test system: LXFL 529
M14 = test system: M14
M19-MEL = test system: M19-MEL
MOLT-4 = test system: MOLT-4
Malme-3M = test system: Malme-3M
NCI-H226 = test system: NCI-H226
NCI-H23 = test system: NCI-H23
NCI-H460 = test system: NCI-H460
NCI-H522 = test system: NCI-H522
OVCAR-3 = test system: OVCAR-3
OVCAR-4 = test system: OVCAR-4
OVCAR-5 = test system: OVCAR-5
OVCAR-8 = test system: OVCAR-8
RPMI-8226 = test system: RPMI-8226
RXF 393 = test system: RXF 393
SF-268 = test system: SF-268
SF-295 = test system: SF-295
SK-MEL-28 = test system: SK-MEL-28
SK-MEL-2 = test system: SK-MEL-2
SK-MEL-5 = test system: SK-MEL-5
SK-OV-3 = test system: SK-OV-3
SN12C = test system: SN12C
SNB-19 = test system: SNB-19
SNB-75 = test system: SNB-75
SNB-78 = test system: SNB-78
SR = test system: SR
SW-620 = test system: SW-620
TK-10 = test system: TK-10
U-251 = test system: U-251
UACC-257 = test system: UACC-257
UACC-62 = test system: UACC-62
UO-31 = test system: UO-31
XF498 = test system: XF498
A498 = test system: A498
HOP-92 = test system: HOP-92
SF-539 = test system: SF-539

COc1cc(C2C(Cl)C(=O)N2n2cnc3ccccc3c2=O)cc(OC)c1OC (stereo unspecified)
GI50 (786-0): > 100 µM (inactive) | GI50 (A549): > 100 µM (inactive) | GI50 (ACHN): > 100 µM (inactive) | GI50 (CAKI-1): 67.1 µM (inactive) | GI50 (CCRF-CEM): 82 µM (inactive) | GI50 (COLO 205): > 100 µM (inactive) | GI50 (DLD-1): > 100 µM (inactive) | GI50 (DMS-114): 43.4 µM (inactive) | GI50 (DMS-273): 41 µM (inactive) | GI50 (EKVX): 92 µM (inactive) | GI50 (HCC 2998): > 100 µM (inactive) | GI50 (HCT-116): > 100 µM (inactive) | GI50 (HCT-15): 63.7 µM | GI50 (HL-60): 28.2 µM (inactive) | GI50 (HOP-18): > 100 µM (inactive) | GI50 (HOP-62): > 100 µM (inactive) | GI50 (HT-29): > 100 µM (inactive) | GI50 (IGROV-1): > 100 µM (inactive) | GI50 (K562): 20.3 µM (inactive) | GI50 (KM-20L2): 64.3 µM (inactive) | GI50 (KM12): 41.9 µM (inactive) | GI50 (LOX IMVI): 57.4 µM (inactive) | GI50 (LXFL 529): > 100 µM (inactive) | GI50 (M14): 84.5 µM (inactive) | GI50 (M19-MEL): > 100 µM (inactive) | GI50 (MOLT-4): 59.2 µM (inactive) | GI50 (Malme-3M): > 100 µM (inactive) | GI50 (NCI-H226): > 100 µM (inactive) | GI50 (NCI-H23): > 100 µM (inactive) | GI50 (NCI-H460): > 100 µM (inactive) | GI50 (NCI-H522): > 100 µM (inactive) | GI50 (OVCAR-3): > 100 µM (inactive) | GI50 (OVCAR-4): 82.2 µM (inactive) | GI50 (OVCAR-5): > 100 µM (inactive) | GI50 (OVCAR-8): > 100 µM (inactive) | GI50 (RPMI-8226): 77.8 µM (inactive) | GI50 (RXF 393): > 100 µM (inactive) | GI50 (SF-268): > 100 µM (inactive) | GI50 (SF-295): > 100 µM (inactive) | GI50 (SK-MEL-28): > 100 µM (inactive) | GI50 (SK-MEL-2): > 100 µM (inactive) | GI50 (SK-MEL-5): > 100 µM (inactive) | GI50 (SK-OV-3): > 100 µM (inactive) | GI50 (SN12C): > 100 µM (inactive) | GI50 (SNB-19): > 100 µM (inactive) | GI50 (SNB-75): 65.5 µM (inactive) | GI50 (SNB-78): > 100 µM (inactive) | GI50 (SR): 31.2 µM (inactive) | GI50 (SW-620): 60.3 µM (inactive) | GI50 (TK-10): > 100 µM (inactive) | GI50 (U-251): > 100 µM (inactive) | GI50 (UACC-257): 55.8 µM (inactive) | GI50 (UACC-62): 37.9 µM (inactive) | GI50 (UO-31): > 100 µM (inactive) | GI50 (XF498): > 100 µM (inactive)

CSc1ccc(/C=C2\CN(C)C/C(=C\c3ccc(SC)cc3)C2=O)cc1
GI50 (786-0): 54.1 µM (inactive) | GI50 (A498): 46.8 µM (inactive) | GI50 (A549): > 100 µM (inactive) | GI50 (ACHN): 40.6 µM (inactive) | GI50 (CAKI-1): > 100 µM (inactive) | GI50 (CCRF-CEM): 23.1 µM (inactive) | GI50 (COLO 205): 21.2 µM (inactive) | GI50 (DLD-1): 11.5 µM (inactive) | GI50 (DMS-114): 24.9 µM (inactive) | GI50 (DMS-273): 14.1 µM (inactive) | GI50 (EKVX): 81.3 µM (inactive) | GI50 (HCC 2998): 79.4 µM (inactive) | GI50 (HCT-116): 20.4 µM (inactive) | GI50 (HCT-15): 32 µM | GI50 (HL-60): 21.1 µM (inactive) | GI50 (HOP-18): > 100 µM (inactive) | GI50 (HOP-62): > 100 µM (inactive) | GI50 (HOP-92): 4.23 µM (inactive) | GI50 (HT-29): 15.2 µM (inactive) | GI50 (IGROV-1): 32.6 µM (inactive) | GI50 (K562): 22.2 µM (inactive) | GI50 (KM-20L2): 32.1 µM (inactive) | GI50 (KM12): 8.75 µM (inactive) | GI50 (LOX IMVI): 6.47 µM (inactive) | GI50 (LXFL 529): 5.22 µM (inactive) | GI50 (M14): 92.3 µM (inactive) | GI50 (M19-MEL): 35.1 µM (inactive) | GI50 (MOLT-4): 19.4 µM (inactive) | GI50 (Malme-3M): > 100 µM (inactive) | GI50 (NCI-H226): > 100 µM (inactive) | GI50 (NCI-H23): 4.52 µM (inactive) | GI50 (NCI-H460): 29.2 µM (inactive) | GI50 (OVCAR-3): 13.8 µM (inactive) | GI50 (OVCAR-4): > 100 µM (inactive) | GI50 (OVCAR-5): > 100 µM (inactive) | GI50 (OVCAR-8): 13.5 µM (inactive) | GI50 (RPMI-8226): 2.52 µM (inactive) | GI50 (RXF 393): 22 µM (inactive) | GI50 (SF-268): 29.2 µM (inactive) | GI50 (SF-295): 21.1 µM (inactive) | GI50 (SF-539): 20 µM (inactive) | GI50 (SK-MEL-28): > 100 µM (inactive) | GI50 (SK-MEL-2): 39.4 µM (inactive) | GI50 (SK-MEL-5): 48.8 µM (inactive) | GI50 (SK-OV-3): 30.8 µM (inactive) | GI50 (SN12C): 23.3 µM (inactive) | GI50 (SNB-75): 12.5 µM (inactive) | GI50 (SNB-78): 19.8 µM (inactive) | GI50 (SR): 7.57 µM (inactive) | GI50 (SW-620): 23 µM (inactive) | GI50 (TK-10): 56.6 µM (inactive) | GI50 (U-251): 4.65 µM (inactive) | GI50 (UACC-257): 31.7 µM (inactive) | GI50 (UACC-62): 55.8 µM (inactive) | GI50 (UO-31): > 100 µM (inactive) | GI50 (XF498): 18.9 µM (inactive)

N=C(N)SCCc1cn2ccccc2n1
GI50 (786-0): > 100 µM (inactive) | GI50 (A549): > 100 µM (inactive) | GI50 (ACHN): > 100 µM (inactive) | GI50 (CAKI-1): > 100 µM (inactive) | GI50 (CCRF-CEM): > 100 µM (inactive) | GI50 (COLO 205): > 100 µM (inactive) | GI50 (DLD-1): 7.03 µM (inactive) | GI50 (DMS-114): > 100 µM (inactive) | GI50 (DMS-273): > 100 µM (inactive) | GI50 (EKVX): > 100 µM (inactive) | GI50 (HCC 2998): > 100 µM (inactive) | GI50 (HCT-116): > 100 µM (inactive) | GI50 (HCT-15): > 100 µM | GI50 (HL-60): > 100 µM (inactive) | GI50 (HOP-18): > 100 µM (inactive) | GI50 (HOP-62): > 100 µM (inactive) | GI50 (HT-29): > 100 µM (inactive) | GI50 (K562): > 100 µM (inactive) | GI50 (KM12): > 100 µM (inactive) | GI50 (LOX IMVI): > 100 µM (inactive) | GI50 (M14): > 100 µM (inactive) | GI50 (M19-MEL): > 100 µM (inactive) | GI50 (MOLT-4): > 100 µM (inactive) | GI50 (Malme-3M): > 100 µM (inactive) | GI50 (NCI-H226): > 100 µM (inactive) | GI50 (NCI-H23): > 100 µM (inactive) | GI50 (NCI-H460): > 100 µM (inactive) | GI50 (NCI-H522): > 100 µM (inactive) | GI50 (OVCAR-3): > 100 µM (inactive) | GI50 (OVCAR-4): > 100 µM (inactive) | GI50 (OVCAR-5): > 100 µM (inactive) | GI50 (OVCAR-8): > 100 µM (inactive) | GI50 (RPMI-8226): > 100 µM (inactive) | GI50 (SF-268): > 100 µM (inactive) | GI50 (SF-295): > 100 µM (inactive) | GI50 (SF-539): > 100 µM (inactive) | GI50 (SK-MEL-28): > 100 µM (inactive) | GI50 (SK-MEL-2): > 100 µM (inactive) | GI50 (SK-MEL-5): 6.92 µM (inactive) | GI50 (SN12C): > 100 µM (inactive) | GI50 (SNB-19): > 100 µM (inactive) | GI50 (SNB-75): > 100 µM (inactive) | GI50 (SNB-78): > 100 µM (inactive) | GI50 (SR): > 100 µM (inactive) | GI50 (SW-620): > 100 µM (inactive) | GI50 (TK-10): > 100 µM (inactive) | GI50 (U-251): > 100 µM (inactive) | GI50 (UACC-257): > 100 µM (inactive) | GI50 (UO-31): > 100 µM (inactive) | GI50 (XF498): > 100 µM (inactive)
